From patent US8513270B2, “Substituted heterocycles as Janus kinase inhibitors” (Incyte Corporation, priority 2006, dated 2013)
Counter-ions that a name gives are not always drawn.

Legend:
[1] = biological target: T1, human JAK3 (a.a. 781-1124) (Homo sapiens, UniProt P52333); assay: In vitro JAK kinase assay (HTRF), JAK3; assay type: biochemical; conditions: JAK3, 3 μM ATP; read-out: EXAMPLE A JAK2-JAK3 HTRF-2 IC50
T1 construct: JAK3 (a.a. 781-1124); His tag (N); made in house; host or cells: insect cells (baculovirus)
Procedure: (§1) Compounds herein were tested for inhibitory activity of JAK targets according to the following in vitro assay described in Park et al., Analytical Biochemistry 1999, 269, 94-104. The catalytic domains of human JAK1 (a.a. 837-1142), JAK2 (a.a. 828-1132) and JAK3 (a.a. 781-1124) with an N-terminal His tag were expressed using baculovirus in insect cells and purified. The catalytic activity of JAK1, JAK2 or JAK3 was assayed by measuring the phosphorylation of a biotinylated peptide. The phosphorylated peptide was detected by homogenous time resolved fluorescence (HTRF). IC50s of compounds were measured for each kinase in the reactions that contain the enzyme, ATP and 500 nM peptide in 50 mM Tris (pH 7.8) buffer with 100 mM NaCl, 5 mM DTT, and 0.1 mg/mL (0.01%) BSA. The ATP concentration in the reactions was 90 μM for JAK1, 30 μM for JAK2 and 3 μM for JAK3. Reactions were carried out at room temperature for 1 hr and then stopped with 20 μL 45 mM EDTA, 300 nM SA-APC, 6 nM Eu—Py20 in assay buffer (Perkin Elmer, Boston, Mass.). Binding to the Europium labeled antibody took place for 40 minutes and HTRF signal was measured on a Fusion plate reader (Perkin Elmer, Boston, Mass.).

[2] = biological target: T2, human JAK1 (a.a. 837-1142) (Homo sapiens, UniProt P23458); assay: In vitro JAK kinase assay (HTRF), JAK1; assay type: biochemical; conditions: JAK1, 90 μM ATP; read-out: EXAMPLE A JAK2-JAK1 HTRF-2 IC50
T2 construct: human JAK1 (a.a. 837-1142); His tag (N); made in house; host or cells: insect cells (baculovirus)
Procedure: as §1

[3] = biological target: T3, human JAK2 (a.a. 828-1132) (Homo sapiens, UniProt O60674); assay: In vitro JAK kinase assay (HTRF), JAK2; assay type: biochemical; conditions: JAK2, 30 μM ATP; read-out: EXAMPLE A HTS-JAK2 HTRF-2 IC50
T3 construct: JAK2 (a.a. 828-1132); His tag (N); made in house; host or cells: insect cells (baculovirus)
Procedure: as §1

TF1-BCRABL1 cells = TF1-BCRABL1 cells (Homo sapiens, UniProt P00519); assay: ABL1 cell based assay: viability of ABL1-dependent cell line (CellTiter-Glo); conditions: 72 hours, cell viability; read-out: EXAMPLE F JAK2-TF1-BCRABL1 IC50
Procedure: One or more compounds herein were tested for inhibitory activity of ABL1 targets according to at least one of the following cellular assays.
Cancer cell lines dependent on ABL1 kinase activity for proliferation and/or survival were plated at 3000 cells per well (96 well plate format) in RPMI 1640, and 10% FBS. Compounds were added to the cells in DMSO/media (final concentration 0.2% DMSO) and incubated for 72 hours at 37° C., 5% CO2. The effect of compound on cell viability was assessed using the CellTiter-Glo Luminescent Cell Viability Assay (Promega) followed by TopCount (Perkin Elmer, Boston, Mass.) quantitation. ABL1-dependent cell lines can include those naturally dependent on ABL1 activity or those engineered to be dependent on ABL1 activity (e.g. BaF/3 cells). The latter can be generated using wild-type ABL1 or mutant ABL1 (such as T315I ABL1) so that the activity of compounds can be assessed against different variants of the ABL1 kinase. Potential off-target effects of compounds were measured in parallel using a non-ABL1 driven cell line with the same assay readout. […] All experiments were performed in duplicate or greater.

T1 sequence (P52333 781-1124): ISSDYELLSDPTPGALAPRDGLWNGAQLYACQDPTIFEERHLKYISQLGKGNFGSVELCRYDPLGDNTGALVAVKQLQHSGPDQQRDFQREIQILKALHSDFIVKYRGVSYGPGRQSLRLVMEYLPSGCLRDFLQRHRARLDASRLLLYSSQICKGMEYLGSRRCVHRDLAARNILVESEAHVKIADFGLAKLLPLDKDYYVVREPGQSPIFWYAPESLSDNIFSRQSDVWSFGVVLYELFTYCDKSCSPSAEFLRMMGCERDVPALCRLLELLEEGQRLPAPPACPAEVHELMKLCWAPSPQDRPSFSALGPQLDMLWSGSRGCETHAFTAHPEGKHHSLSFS
TF1-BCRABL1 cells, sequence (P00519 whole entry, change not shown): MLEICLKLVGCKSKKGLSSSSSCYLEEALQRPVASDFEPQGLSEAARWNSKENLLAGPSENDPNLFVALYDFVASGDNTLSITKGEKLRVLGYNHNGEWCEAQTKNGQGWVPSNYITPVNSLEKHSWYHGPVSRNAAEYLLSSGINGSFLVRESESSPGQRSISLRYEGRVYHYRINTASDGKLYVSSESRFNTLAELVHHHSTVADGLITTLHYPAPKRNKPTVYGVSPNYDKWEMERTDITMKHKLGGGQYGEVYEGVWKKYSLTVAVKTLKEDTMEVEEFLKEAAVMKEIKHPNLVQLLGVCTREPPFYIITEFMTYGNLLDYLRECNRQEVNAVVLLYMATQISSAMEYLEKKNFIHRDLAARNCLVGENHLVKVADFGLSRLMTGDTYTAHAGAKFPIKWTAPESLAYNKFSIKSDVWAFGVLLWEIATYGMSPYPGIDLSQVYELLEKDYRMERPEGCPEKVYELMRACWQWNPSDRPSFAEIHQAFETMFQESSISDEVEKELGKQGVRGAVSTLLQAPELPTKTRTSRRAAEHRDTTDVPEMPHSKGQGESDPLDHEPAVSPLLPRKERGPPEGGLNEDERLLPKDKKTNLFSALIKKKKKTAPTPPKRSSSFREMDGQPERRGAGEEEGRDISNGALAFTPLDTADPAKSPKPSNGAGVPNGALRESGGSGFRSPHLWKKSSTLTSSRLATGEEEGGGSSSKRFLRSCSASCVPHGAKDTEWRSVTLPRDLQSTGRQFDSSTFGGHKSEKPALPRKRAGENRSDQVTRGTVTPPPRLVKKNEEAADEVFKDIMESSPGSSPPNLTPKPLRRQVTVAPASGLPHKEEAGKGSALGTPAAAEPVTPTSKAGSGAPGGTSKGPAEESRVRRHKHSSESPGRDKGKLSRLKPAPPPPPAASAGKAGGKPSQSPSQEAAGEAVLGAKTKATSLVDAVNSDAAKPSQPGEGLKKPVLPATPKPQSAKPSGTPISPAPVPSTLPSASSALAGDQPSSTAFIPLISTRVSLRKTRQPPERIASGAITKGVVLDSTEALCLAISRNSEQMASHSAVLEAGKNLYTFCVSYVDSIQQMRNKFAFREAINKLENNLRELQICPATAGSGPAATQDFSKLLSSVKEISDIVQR
T2 sequence (P23458 849-1154): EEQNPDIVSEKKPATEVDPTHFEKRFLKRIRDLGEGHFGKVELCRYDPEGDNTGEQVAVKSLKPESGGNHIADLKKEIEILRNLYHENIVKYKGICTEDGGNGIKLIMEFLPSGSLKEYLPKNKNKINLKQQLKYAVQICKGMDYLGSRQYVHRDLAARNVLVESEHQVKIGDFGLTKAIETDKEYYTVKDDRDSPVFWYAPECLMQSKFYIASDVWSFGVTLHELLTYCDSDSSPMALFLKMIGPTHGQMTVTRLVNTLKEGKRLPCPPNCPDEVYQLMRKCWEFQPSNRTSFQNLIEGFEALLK
T3 sequence (O60674 828-1132): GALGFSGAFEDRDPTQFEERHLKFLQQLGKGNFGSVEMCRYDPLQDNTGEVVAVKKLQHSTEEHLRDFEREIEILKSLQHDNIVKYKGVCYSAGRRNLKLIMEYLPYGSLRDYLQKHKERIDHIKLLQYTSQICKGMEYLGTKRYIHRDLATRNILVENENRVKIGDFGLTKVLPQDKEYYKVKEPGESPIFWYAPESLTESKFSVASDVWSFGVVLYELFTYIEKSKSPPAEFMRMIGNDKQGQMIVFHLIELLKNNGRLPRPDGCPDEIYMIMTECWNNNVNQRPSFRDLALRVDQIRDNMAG

Cc1ccc(NC(=O)c2cc(N3CCN(CCO)CC3)cc(C(F)(F)F)c2)cc1-c1ccc2c(c1)[nH]c1ncncc12 [Example 32, 3-[4-(2-hydroxyethyl)piperazin-1-yl]-N-[4-methyl-3-(9H-pyrimido[4,5-b]indol-7-yl)-phenyl]-5-(trifluoromethyl)-benzamide]
≤ 0.5 µM: IC50 [1] | IC50 [2] | IC50 [3] | GI50 (TF1-BCRABL1 cells)

Cc1ccc(NC(=O)c2cc(NCCCN(C)C)cc(C(F)(F)F)c2)cc1-c1ccc2c(c1)[nH]c1ncncc12 [Example 33, 3-{[3-(dimethylamino)propyl]-amino}-N-[4-methyl-3-(9H-pyrimido[4,5-b]indol-7-yl)-phenyl]-5-(trifluoromethyl)-benzamide]
≤ 0.5 µM: IC50 [1] | IC50 [2] | IC50 [3] | GI50 (TF1-BCRABL1 cells)

Cc1ccc(NC(=O)c2cc(N3CCC(O)C3)cc(C(F)(F)F)c2)cc1-c1ccc2c(c1)[nH]c1ncncc12 (centres unmarked) [Example 34, 3-(3-hydroxypyrrolidin-1-yl)-N-[4-methyl-3-(9H-pyrimido-[4,5-b]indol-7-yl)phenyl]-5-(trifluoromethyl)benzamide]
≤ 0.5 µM: IC50 [1] | IC50 [2] | IC50 [3] | GI50 (TF1-BCRABL1 cells)

Cc1ccc(NC(=O)c2cc(NCCCn3ccnc3)cc(C(F)(F)F)c2)cc1-c1ccc2c(c1)[nH]c1ncncc12 [Example 35, 3-{[3-(1H-imidazol-1-yl)-propyl]amino}-N-[4-methyl-3-(9H-pyrimido[4,5-b]indol-7-yl)phenyl]-5-(trifluoromethyl)-benzamide]
≤ 0.5 µM: IC50 [1] | IC50 [2] | IC50 [3] | GI50 (TF1-BCRABL1 cells)

Cc1ccc(NC(=O)c2cc(N(C)C)cc(C(F)(F)F)c2)cc1-c1ccc2c(c1)[nH]c1ncncc12 [Example 36, 3-(dimethylamino)-N-[4-methyl-3-(9H-pyrimido[4,5-b]-indol-7-yl)phenyl]-5-(trifluoromethyl)benzamide]
≤ 0.5 µM: IC50 [1] | IC50 [2] | IC50 [3] | GI50 (TF1-BCRABL1 cells)

Cc1ccc(NC(=O)c2cc(N3CCC(N(C)C)C3)cc(C(F)(F)F)c2)cc1-c1ccc2c(c1)[nH]c1ncncc12 (centres unmarked) [Example 37, 3-[3-(dimethylamino)-pyrrolidin-1-yl]-N-[4-methyl-3-(9H-pyrimido[4,5-b]indol-7-yl)phenyl]-5-(trifluoromethyl)-benzamide]
≤ 0.5 µM: IC50 [1] | IC50 [2] | IC50 [3] | GI50 (TF1-BCRABL1 cells)

Cc1ccc(NC(=O)c2cccc(C(F)(F)F)c2)cc1-c1ccc2c(c1)[nH]c1nc(N)ncc12 [Example 67, N-[3-(2-Amino-9H-pyrimido[4,5-b]indol-7-yl)-4-methylphenyl]-3-(trifluoro-methyl)benzamide trifluoroacetate]
≤ 0.5 µM: IC50 [1] | IC50 [2] | IC50 [3] | GI50 (TF1-BCRABL1 cells)

Cc1ncc(NC(=O)c2cc(F)cc(C(F)(F)F)c2)cc1-c1ccc2c(c1)[nH]c1ncncc12 [Example 71, 3-Fluoro-N-[6-methyl-5-(9H-pyrimido[4,5-b]indol-7-yl)pyridin-3-yl]-5-(trifluoromethyl)benzamide]
≤ 0.5 µM: IC50 [1] | IC50 [2] | IC50 [3] | GI50 (TF1-BCRABL1 cells)

Cc1ncc(NC(=O)c2cc(-n3ccnc3)cc(C(F)(F)F)c2)cc1-c1ccc2c(c1)[nH]c1ncncc12 [Example 72, 3-(1H-imidazol-1-yl)-N-[6-methyl-5-(9H-pyrimido[4,5-b]indol-7-yl)pyridin-3-yl]-5-(trifluoromethyl)benzamide tris(trifluoroacetate)]
≤ 0.5 µM: IC50 [1] | IC50 [2] | IC50 [3] | GI50 (TF1-BCRABL1 cells)

Cc1ncc(NC(=O)c2cc(-n3cncn3)cc(C(F)(F)F)c2)cc1-c1ccc2c(c1)[nH]c1ncncc12 [Example 73, N-[6-methyl-5-(9H-pyrimido[4,5-b]indol-7-yl)pyridin-3-yl]-3-(1H-1,2,4-triazol-1-yl)-5-(trifluoromethyl)benzamide bis(trifluoroacetate)]
≤ 0.5 µM: IC50 [1] | IC50 [2] | IC50 [3] | GI50 (TF1-BCRABL1 cells)

Cc1ncc(NC(=O)c2cc(-n3cnc(C=O)c3)cc(C(F)(F)F)c2)cc1-c1ccc2c(c1)[nH]c1ncncc12 [Example 74, 3-(4-formyl-1H-imidazol-1-yl)-N-[6-methyl-5-(9H-pyrimido[4,5-b]indol-7-yl)pyridin-3-yl]-5-(trifluoromethyl)benzamide bis(trifluoroacetate)]
≤ 0.5 µM: IC50 [1] | IC50 [2] | IC50 [3] | GI50 (TF1-BCRABL1 cells)

Cc1ncc(NC(=O)c2cc(-n3cnc(CO)c3)cc(C(F)(F)F)c2)cc1-c1ccc2c(c1)[nH]c1ncncc12 [Example 75, 3-[4-(hydroxymethyl)-1H-imidazol-1-yl]-N-[6-methyl-5-(9H-pyrimido[4,5-b]indol-7-yl)pyridin-3-yl]-5-(trifluoromethyl)benzamide tris(trifluoroacetate) (salt)]
≤ 0.5 µM: IC50 [1] | IC50 [2] | IC50 [3] | GI50 (TF1-BCRABL1 cells)

Cc1ncc(NC(=O)c2cc(NCCN(C)C)cc(C(F)(F)F)c2)cc1-c1ccc2c(c1)[nH]c1ncncc12 [Example 76, 3-[2-(dimethylamino)ethyl]amino-N-[6-methyl-5-(9H-pyrimido[4,5-b]indol-7-yl)pyridin-3-yl]-5-(trifluoromethyl)benzamide tris(trifluoroacetate)]
≤ 0.5 µM: IC50 [1] | IC50 [2] | IC50 [3] | GI50 (TF1-BCRABL1 cells)

Cc1ncc(NC(=O)c2cc(NCCCN(C)C)cc(C(F)(F)F)c2)cc1-c1ccc2c(c1)[nH]c1ncncc12 [Example 77, 3-[3-(dimethylamino)propyl]amino-N-[6-methyl-5-(9H-pyrimido[4,5-b]indol-7-yl)pyridin-3-yl]-5-(trifluoromethyl)benzamide tris(trifluoroacetate)]
≤ 0.5 µM: IC50 [1] | IC50 [2] | IC50 [3] | GI50 (TF1-BCRABL1 cells)
